Reference: ChEMBL document CHEMBL1201862, “PubChem BioAssay data set” (2004)
Calls of active or inactive are those of the source.

How the values were obtained:
[1] = molecular target: Peroxisome proliferator-activated receptor gamma/Nuclear receptor coactivator 2 (Homo sapiens, UniProt P37231); assay: (§1) TR-FRET dose response biochemical High Throughput Screening assay for agonists of the steroid receptor coactivator 2 (SRC-2) recruitment by the peroxisome proliferator-activated receptor gamma (PPAR gamma): non-selective agonists. [Related pubchem assays: 1297, 1032 ]; assay type: functional
[2] = molecular target: Peroxisome proliferator-activated receptor gamma/Nuclear receptor coactivator 3 (Homo sapiens, UniProt P37231); assay: as §1, with “3 (SRC-3)” for “2 (SRC-2)”, “1301 (Confirmation screen.), 1048 (Primary screen.)]” for “1297, 1032 ]”; assay type: functional
[3] = molecular target: T1, Polyadenylate-binding protein 1 (Homo sapiens, UniProt P11940); assay: PABP1 MLLE–PAM2 binding inhibitor potency, dose response, biochemical, fluorescence polarization, FITC-PAM2 peptide (AID 602259); assay type: functional; conditions: read-out: IC50_Mean
T1 sequence (P11940 whole entry, the tested form may be a part): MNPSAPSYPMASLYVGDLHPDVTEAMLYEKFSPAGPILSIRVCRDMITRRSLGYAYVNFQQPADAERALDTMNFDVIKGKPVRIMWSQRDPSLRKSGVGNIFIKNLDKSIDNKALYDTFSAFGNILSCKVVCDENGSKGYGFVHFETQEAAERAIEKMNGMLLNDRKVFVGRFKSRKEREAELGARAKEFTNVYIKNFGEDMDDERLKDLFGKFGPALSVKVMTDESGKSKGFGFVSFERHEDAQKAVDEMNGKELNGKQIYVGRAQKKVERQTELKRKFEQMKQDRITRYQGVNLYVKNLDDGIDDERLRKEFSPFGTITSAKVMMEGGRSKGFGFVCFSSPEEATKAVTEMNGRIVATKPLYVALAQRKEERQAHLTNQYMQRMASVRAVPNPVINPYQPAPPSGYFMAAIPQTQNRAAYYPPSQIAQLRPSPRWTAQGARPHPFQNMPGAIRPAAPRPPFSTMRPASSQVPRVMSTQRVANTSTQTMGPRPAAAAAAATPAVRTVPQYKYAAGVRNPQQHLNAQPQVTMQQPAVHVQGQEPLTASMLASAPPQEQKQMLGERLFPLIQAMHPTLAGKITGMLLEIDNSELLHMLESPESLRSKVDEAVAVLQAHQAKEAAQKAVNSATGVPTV

[4] = molecular target: T2, Fibrinogen beta chain (Homo sapiens, UniProt P02675); assay: Fluorescence polarization-based biochemical high throughput dose response assay to identify inhibitors that disrupt the binding of a cyclic peptide (Tn6) to the fibrin proteolytic product D-Dimer and fragment E complex [DD(E )].
T2 sequence (P02675 whole entry, the tested form may be a part): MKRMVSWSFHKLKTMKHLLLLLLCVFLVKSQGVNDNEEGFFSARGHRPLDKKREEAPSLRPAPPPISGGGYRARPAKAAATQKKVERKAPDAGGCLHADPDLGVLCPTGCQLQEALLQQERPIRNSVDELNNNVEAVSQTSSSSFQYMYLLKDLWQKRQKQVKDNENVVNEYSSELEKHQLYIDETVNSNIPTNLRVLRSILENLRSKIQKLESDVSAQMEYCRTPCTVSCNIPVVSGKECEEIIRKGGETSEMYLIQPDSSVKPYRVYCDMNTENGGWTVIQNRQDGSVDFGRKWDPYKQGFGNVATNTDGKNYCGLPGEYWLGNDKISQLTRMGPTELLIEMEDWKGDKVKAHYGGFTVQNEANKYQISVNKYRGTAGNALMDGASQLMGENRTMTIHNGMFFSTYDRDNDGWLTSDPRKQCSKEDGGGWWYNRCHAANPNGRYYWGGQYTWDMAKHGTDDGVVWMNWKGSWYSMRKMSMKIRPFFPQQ

[5] = molecular target: Peroxisome proliferator-activated receptor gamma/Nuclear receptor coactivator 1 (Homo sapiens, UniProt P37231); assay: as §1, with “1 (SRC-1)” for “2 (SRC-2)”, “assays (depositor defined):AID1300, AID1808, AID504735, AID631]” for “assays: 1297, 1032 ]”; assay type: protein assay
[6] = molecular target: T1, Polyadenylate-binding protein 1; assay: PABP1 MLLE–PAM2 interaction inhibitors, dose response, miRNA deadenylation inhibitor project, biochemical, fluorescence polarization, Cy5-PAM2 peptide, secondary (AID 602260); assay type: functional; conditions: read-out: IC50_Mean
[7] = molecular target: T2, Fibrinogen beta chain; assay: Fluorescence polarization-based biochemical high throughput dose response assay to identify inhibitors that disrupt the binding of a cyclic peptide (Tn7) to the fibrin proteolytic product D-Dimer and fragment E complex [DD(E )].
[8] = molecular target: Bifunctional protein GlmU (Mycobacterium tuberculosis, UniProt P9WMN3); assay: Inhibitors of Mycobacterial Glucosamine-1-phosphate acetyl transferase (GlmU). Secondary screen.; set-up: species or system Mycobacterium tuberculosis H37Rv
Chain of Bifunctional protein GlmU (P9WMN3 whole entry): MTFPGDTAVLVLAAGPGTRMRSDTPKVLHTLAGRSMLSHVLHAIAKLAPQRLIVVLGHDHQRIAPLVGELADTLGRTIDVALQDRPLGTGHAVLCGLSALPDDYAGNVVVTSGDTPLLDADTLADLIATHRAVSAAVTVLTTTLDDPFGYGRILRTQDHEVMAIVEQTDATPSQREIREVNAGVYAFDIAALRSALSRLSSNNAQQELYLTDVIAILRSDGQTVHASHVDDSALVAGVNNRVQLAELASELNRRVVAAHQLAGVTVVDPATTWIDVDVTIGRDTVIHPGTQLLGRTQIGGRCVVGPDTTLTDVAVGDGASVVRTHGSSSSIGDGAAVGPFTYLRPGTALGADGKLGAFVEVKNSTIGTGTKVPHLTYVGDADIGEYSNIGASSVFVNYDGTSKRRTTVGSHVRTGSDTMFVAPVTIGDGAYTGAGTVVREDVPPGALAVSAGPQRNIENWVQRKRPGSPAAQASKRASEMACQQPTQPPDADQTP

[9] = cells
[10] = inhibitors of SNCA 5'UTR-driven reporter translation, confirmation, H4 neuroglioma cells, luminescence (AID 1988); assay type: functional, cell-based
[11] = molecular target: Alkaline phosphatase, placental type (Homo sapiens, UniProt P05187); assay: PLAP enzyme inhibitors, confirmation, biochemical, luminescence (AID 1512); assay type: functional
Chain of Alkaline phosphatase, placental type (P05187 whole entry): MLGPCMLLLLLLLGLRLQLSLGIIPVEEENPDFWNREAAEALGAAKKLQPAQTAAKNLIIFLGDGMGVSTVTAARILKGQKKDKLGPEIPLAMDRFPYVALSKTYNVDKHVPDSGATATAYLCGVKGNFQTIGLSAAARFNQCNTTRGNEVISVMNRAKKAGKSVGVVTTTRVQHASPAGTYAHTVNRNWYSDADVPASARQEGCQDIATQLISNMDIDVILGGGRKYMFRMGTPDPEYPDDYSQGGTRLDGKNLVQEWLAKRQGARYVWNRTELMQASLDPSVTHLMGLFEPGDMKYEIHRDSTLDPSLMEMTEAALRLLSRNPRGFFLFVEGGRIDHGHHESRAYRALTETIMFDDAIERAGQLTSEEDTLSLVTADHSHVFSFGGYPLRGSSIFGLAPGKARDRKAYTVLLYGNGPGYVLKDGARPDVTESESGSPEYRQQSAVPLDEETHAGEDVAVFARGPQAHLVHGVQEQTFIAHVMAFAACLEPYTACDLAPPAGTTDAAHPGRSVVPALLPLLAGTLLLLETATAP

[12] = inhibitors of firefly luciferase expression or activity, dose response, H4 neuroglioma cells, luminescence (AID 1990); assay type: functional, cell-based
[13] = molecular target: T3, Alkaline phosphatase, tissue-nonspecific isozyme (Homo sapiens, UniProt P05186); assay: human TNAP enzyme inhibitors, SAR follow-up, biochemical, luminescent, dose response (AID 1056)
T3 sequence (P05186 whole entry): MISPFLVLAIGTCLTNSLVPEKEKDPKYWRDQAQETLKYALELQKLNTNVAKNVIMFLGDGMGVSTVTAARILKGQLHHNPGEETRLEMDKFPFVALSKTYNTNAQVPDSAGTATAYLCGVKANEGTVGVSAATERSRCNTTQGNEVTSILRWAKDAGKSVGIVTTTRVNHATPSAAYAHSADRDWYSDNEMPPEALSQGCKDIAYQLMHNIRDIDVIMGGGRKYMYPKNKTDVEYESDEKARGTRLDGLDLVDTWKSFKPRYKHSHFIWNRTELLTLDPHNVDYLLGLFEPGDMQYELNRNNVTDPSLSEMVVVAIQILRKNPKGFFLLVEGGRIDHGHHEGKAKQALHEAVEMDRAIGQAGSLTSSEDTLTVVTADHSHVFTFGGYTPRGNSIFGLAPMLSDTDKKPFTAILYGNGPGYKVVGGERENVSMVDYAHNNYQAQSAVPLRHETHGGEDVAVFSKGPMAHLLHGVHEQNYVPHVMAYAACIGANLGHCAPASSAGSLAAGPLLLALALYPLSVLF

[14] = Luminescence Cell-Based Dose Confirmation HTS to Identify Inhibitors of Platelet Dense Granule Release. [Related pubchem assays: 1663 (Primary HTS), 1678 (Summary of Project)]; assay type: functional
[15] = molecular target: Oxysterols receptor LXR-beta (Homo sapiens, UniProt P55055); assay type: functional, cell-based;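 note: Cell-based luminescence dose-response assay of agonist activity at LXR, run as a confirmatory counterscreen to a daf-12 agonist screen; HEK293 cells with Gal4-LXR fusion and GAL4-driven luciferase reporter; agonist potency from rising luciferase signal of a Gal4-LXR reporter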
Chain of Oxysterols receptor LXR-beta (P55055 whole entry, the tested form may be a part): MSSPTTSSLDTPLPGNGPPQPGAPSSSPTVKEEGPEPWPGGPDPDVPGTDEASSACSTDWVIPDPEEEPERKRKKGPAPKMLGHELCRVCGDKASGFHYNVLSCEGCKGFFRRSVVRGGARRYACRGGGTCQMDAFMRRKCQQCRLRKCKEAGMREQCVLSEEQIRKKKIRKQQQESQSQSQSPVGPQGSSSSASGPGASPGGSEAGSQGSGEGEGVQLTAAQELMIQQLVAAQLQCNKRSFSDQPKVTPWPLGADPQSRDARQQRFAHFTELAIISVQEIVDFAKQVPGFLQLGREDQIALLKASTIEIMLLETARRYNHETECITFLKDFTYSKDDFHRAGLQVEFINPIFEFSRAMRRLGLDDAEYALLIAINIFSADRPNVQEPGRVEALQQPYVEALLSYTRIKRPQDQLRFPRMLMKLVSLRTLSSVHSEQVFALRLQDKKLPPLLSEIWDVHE

[16] = inhibitors of intracellular T. cruzi replication, confirmation, NIH3T3 host cells, beta-gal luminescence (AID 2044); assay type: functional, cell-based;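 note: intracellular parasites grown in NIH/3T3 mouse fibroblasts as host cells; luminescent beta-galactosidase reporter signal from transgenic T. cruzi replicating inside host cells; inhibitors lower the luminescence signal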
[17] = Luminescence Cell-Based Dose Response HTS to Identify Inhibitors of 5'UTR Stem-Loop Driven Prion Protein mRNA Translation in H4 Neuroglioblastoma Cells. [Related pubchem assays: 1827 (Project Summary), 1813 (Primary HTS)]; assay type: functional
[18] = molecular target: Luciferin 4-monooxygenase (Photinus pyralis, UniProt P08659); assay: firefly luciferase enzyme inhibitors, dose response, biochemical, luminescence (AID 1891)
Chain of Luciferin 4-monooxygenase (P08659 whole entry): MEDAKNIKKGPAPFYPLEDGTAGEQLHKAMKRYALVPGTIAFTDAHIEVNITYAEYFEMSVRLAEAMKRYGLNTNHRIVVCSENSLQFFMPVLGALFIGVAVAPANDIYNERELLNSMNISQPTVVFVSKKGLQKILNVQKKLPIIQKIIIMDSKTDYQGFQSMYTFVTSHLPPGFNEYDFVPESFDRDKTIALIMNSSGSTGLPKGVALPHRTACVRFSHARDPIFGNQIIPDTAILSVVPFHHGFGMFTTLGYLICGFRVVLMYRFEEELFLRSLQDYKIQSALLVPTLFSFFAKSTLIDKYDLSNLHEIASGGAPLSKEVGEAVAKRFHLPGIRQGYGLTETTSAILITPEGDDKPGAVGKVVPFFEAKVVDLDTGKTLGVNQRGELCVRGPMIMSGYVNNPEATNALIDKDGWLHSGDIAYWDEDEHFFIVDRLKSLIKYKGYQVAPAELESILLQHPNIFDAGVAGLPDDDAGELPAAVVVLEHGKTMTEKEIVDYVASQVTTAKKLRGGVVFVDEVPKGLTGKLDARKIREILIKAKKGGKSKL

[19] = molecular target: Glutathione-S-transferase (Schistosoma japonicum, UniProt Q26513); assay: biotin-GST/anti-GST TR-FRET signal inhibitors, dose response, artefact control for Vif-APOBEC3G degradation inhibitor project, biochemical (AID 1117362); assay type: functional
Chain of Glutathione-S-transferase (Q26513 whole entry): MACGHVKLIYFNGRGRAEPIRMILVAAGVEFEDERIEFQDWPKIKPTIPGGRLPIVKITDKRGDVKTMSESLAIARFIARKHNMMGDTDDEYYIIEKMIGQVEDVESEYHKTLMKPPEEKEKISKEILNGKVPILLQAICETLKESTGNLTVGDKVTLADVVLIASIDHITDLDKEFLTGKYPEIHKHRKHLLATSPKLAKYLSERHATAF

[20] = molecular target: Eukaryotic translation initiation factor 4E (Mus musculus, UniProt P63073); assay: eIF4E–eIF4G protein interaction inhibitors, dose response, biochemical, TR-FRET (AID 855); assay type: functional;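 note: potency for disrupting eIF4E binding to eIF4GI seen as loss of FRET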
Chain of Eukaryotic translation initiation factor 4E (P63073 whole entry): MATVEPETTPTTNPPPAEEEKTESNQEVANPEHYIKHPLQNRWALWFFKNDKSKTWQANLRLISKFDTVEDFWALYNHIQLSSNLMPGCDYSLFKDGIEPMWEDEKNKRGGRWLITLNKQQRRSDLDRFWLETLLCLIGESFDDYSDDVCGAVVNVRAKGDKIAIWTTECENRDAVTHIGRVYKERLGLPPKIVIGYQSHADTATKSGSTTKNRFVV

[21] = system: BJ; assay: cells; assay type: functional, cell-based; conditions: Homo sapiens
[22] = system: BJ; assay: cytotoxicity toward BJ-TERT-LT-ST fibroblasts, dose response, cell-based, RAS-independent, luminescence (AID 1935); assay type: functional; conditions: Homo sapiens;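 note: BJ fibroblasts immortalized with TERT plus LT and ST oncogenes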
[23] = HEK293 cell cytotoxicity, dose response, cytotoxicity control, dry powder samples (AID 720567); assay type: functional, cell-based
[24] = cytotoxicity toward DRD oncogenic fibroblasts, dose response, cell-based, non-viral oncogenic, luminescence (AID 1934); assay type: functional; conditions: Homo sapiens
[25] = system: BJ; assay: cytotoxicity toward BJ-TERT fibroblasts, dose response, cell-based, RAS-independent, luminescence (AID 1933); assay type: functional; conditions: Homo sapiens
[26] = half-maximal inhibitory concentration for glucagon-like peptide-1 release, STC-1 cell line, dose-response (AID 1117345); assay type: functional, cell-based
[27] = Glucagon-like peptide 1 release potency, NCI-H716 cell line, dose-response, half-maximal inhibitory concentration (AID 1117344); assay type: functional, cell-based
[28] = molecular target: NAD-dependent protein deacylase sirtuin-5, mitochondrial (Homo sapiens, UniProt Q9NXA8); assay: SIRT5 desuccinylase inhibitors, dose response, biochemical, fluorescence imaging, cherry-pick, set 5 (AID 720591);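 note: desuccinylation of succinyl peptide AMC substrate read as fluorescence after trypsin release; potency of inhibitors that lower fluorescence and may act on trypsin instead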
Chain of NAD-dependent protein deacylase sirtuin-5, mitochondrial (Q9NXA8 whole entry): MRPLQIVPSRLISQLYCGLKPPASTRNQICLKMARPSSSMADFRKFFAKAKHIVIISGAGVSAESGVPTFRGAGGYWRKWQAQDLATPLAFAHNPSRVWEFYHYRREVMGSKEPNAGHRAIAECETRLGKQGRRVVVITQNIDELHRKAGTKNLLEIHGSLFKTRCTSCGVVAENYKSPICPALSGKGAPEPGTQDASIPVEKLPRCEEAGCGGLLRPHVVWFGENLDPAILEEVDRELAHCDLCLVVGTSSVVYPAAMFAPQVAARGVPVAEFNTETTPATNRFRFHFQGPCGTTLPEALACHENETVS

With `Cc1cc2cc(CNC(=O)c3ccc(S(=O)(=O)N4CCOCC4)cc3)ccc2n1C` the EC50 [1] was 6.71 µM (active), the EC50 [2] was 15.7 µM (not active) and the IC50 [3] was 49.6 µM (inactive). The IC50 [4] was 10.6 µM (inactive), the EC50 [5] was 6.78 µM (active) and the IC50 [6] was > 66 µM (inactive). The IC50 [7] was > 83.3 µM (inactive).
In the case of `O=S1(=O)c2ccccc2N=NN1Cc1ccc(Cl)c(Cl)c1`, the IC50 [8] is reported as 38.7 µM (active).
With `Clc1ccc(/C=C/c2nc3ccccc3[nH]2)c(Cl)c1` the EC50 [9] was > 67.5 µM (inactive), the EC50 [10] was 2.85 µM (inconclusive) and the IC50 [11] was 2.85 µM (active). For the same compound, the EC50 [12] was 0.55 µM (active), the IC50 [13] was 5.78 µM (active) and the EC50 [14] was 8.31 µM (active). The EC50 [15] was > 67.5 µM (inactive), the EC50 [16] was 3.15 µM (active) and the EC50 [17] was 7.08 µM (active). For the same compound, the EC50 [18] was 0.519 µM (active).
In the case of `CN(C)[C@@H]1C(=O)C(C(=O)NCN2CCCC2)=C(O)[C@@]2(O)C(O)=C3C(=O)c4c(O)cccc4[C@@](C)(O)C3CC12` (some centres not stated), the IC50 [19] is reported as > 100 µM (active) and the IC50 [20] is reported as 12.3 µM (active).
In the case of `CCC1=Nc2cc(C(=O)NCCCOC)ccc2Sc2ccccc21`, the EC50 [21] is reported as 13.2 µM (active), the EC50 [22] is reported as 0.754 µM (inconclusive) and the EC50 [10] is reported as 0.127 µM (active). The EC50 [12] was 8.66 µM (inconclusive), the EC50 [16] was 5.01 µM (active) and the AC50 [23] was 9.95 µM (active). For the same compound, the EC50 [17] was 16.1 µM (active), the EC50 [24] was 0.944 µM (active) and the EC50 [25] was 1.07 µM (active).
In the case of `c1ccc2ccccc2c1`, the IC50 [26] is reported as > 40 µM (inactive) and the IC50 [27] is reported as 20.8 µM (inactive).
In the case of `Cc1ccc(S(=O)(=O)N2[C@@H](c3ccccc3)C(C(=O)O)=CC[C@H]2c2ccc(Cl)cc2)cc1`, the AC50 [28] is reported as > 30 µM (inactive).
